Source: patent publication EP4446411A1, “VARIANT SUBTILISIN PROTEASES” (PEACCEL, priority 2023, dated 2024)
*1 amine or outer side, *2 acyl side, *3 side chain or, on linkers, in order; H or OH if unused. Where a SMILES comes first, the peptide text is derived from it. The star is where a group is joined. pNA = O=[N+]([O-])c1ccc(N*)cc1; Suc = O=C(CCC(=O)[*:2])[*:1]

Columns and labels:
Assay in all cases: Kinetic parameters by release of p-nitroaniline from suc-AAPFpNA (absorbance at 410 nm, Michaelis-Menten fit)
[1] = target: T1, Bacillus lentus subtilisin variant N74D/S101A/V102W (control variant of WO1995010591), SEQ ID NO: 3 (Lederbergia lenta, UniProt P29600, N74D/S101A/V102W); assay type: biochemical
T1 construct: made in house; host or cells: protease deficient Bacillus subtilis 168
T1 sequence (P29600 1-269 N74D/S101A/V102W): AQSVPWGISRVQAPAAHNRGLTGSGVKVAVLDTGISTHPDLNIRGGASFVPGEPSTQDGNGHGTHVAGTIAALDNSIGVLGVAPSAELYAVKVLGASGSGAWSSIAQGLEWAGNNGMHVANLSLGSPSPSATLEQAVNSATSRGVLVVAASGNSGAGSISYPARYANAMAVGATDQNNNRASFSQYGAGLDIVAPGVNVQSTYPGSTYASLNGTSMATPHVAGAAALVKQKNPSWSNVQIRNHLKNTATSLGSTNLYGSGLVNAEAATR
Procedure: (§1) Three selected mutants as well as the wild-type and one mutant of the patent application WO1995010591 A1 data set were cloned in a Bacillus vector behind a constitutive APRE promotor and expressed in a protease deficient Bacillus subtilis 168 strain. The transformed strains were grown for 24 hours at 37°C in shake flasks. The subtilisin variants were purified by Ion exchange chromatography followed by […] with a 0-200 mM salt gradient. The activity of the protease variants was determined by the release of the chromophore para-nitroanilide from succinyl-alanine-alanine-proline-phenylalanine-para-nitroanilide (suc-AAPFpNA). The release of the pNA causes an increase in the absorbance at 410 nm, the temporal progression of which is used as a measure of the activity of the enzymes.
(§2) The kinetic parameters kcat and Km of the variants were measured using basically the method described in Bonneau, P. R., Graycar, T. P., Estell, D. A., & Jones, J. B. (1991). Alteration of the specificity of subtilisin BPN'by site-directed mutagenesis in its S1 and S1'binding sites. Journal of the American Chemical Society, 113(3), 1026-1030. A small aliquot of purified subtilisin variant was added to a 96 microtiterplate well containing succinyl-L-Ala-L-Ala-L-Pro-L-Phe-p-nitroanilide (SEQ ID NO: 1) dissolved in 0.1M Tris-HCL, pH 8.6. The reaction progress was measured spectrophotometrically at 25°C by monitoring the absorbance of p-nitroaniline at 410nm. The corresponding experimental values were fit to the Michaelis-Menten equation by a regression algorithm. The kcat/KM ratio was obtained by dividing the resulting values. […] Table 2: kinetic parameters kcat and Km of the variants at pH 8.6
(§3) The kinetic parameters kcat and Km of the variants were also measured using basically the method described in Bonneau, P. R., Graycar, T. P., Estell, D. A., & Jones, J. B. (1991). Alteration of the specificity of subtilisin BPN'by site-directed mutagenesis in its S1 and S1'binding sites. Journal of the American Chemical Society, 113(3), 1026-1030. A small aliquot of purified subtilisin variant was added to a microtiterplate containing suc-AAPFpNA (SEQ ID NO:1) dissolved in 0.1M glycine pH10. The reaction progress was measured spectrophotometrically by monitoring the absorbance of p-nitroaniline at 410nm. The corresponding experimental values were fit to the Michaelis-Menten equation by a regression algorithm. The kcat/Km ratio was obtained by dividing the resulting values. […] Kcat kcat/km are indicated as % compared to the wild-type (100%). Table 3: kinetic parameters kcat and Km of the variants at pH 10

[2] = target: T2, Bacillus lentus subtilisin variant N74D/S97D/S126G/P204I/T254P/S259N, SEQ ID NO: 6 (Lederbergia lenta, UniProt P29600, N74D/P204I/S126G/S259N/S97D/T254P); assay type: biochemical
T2 construct: made in house; host or cells: protease deficient Bacillus subtilis 168
T2 sequence (P29600 1-269 N74D/S97D/S126G/P204I/T254P/S259N): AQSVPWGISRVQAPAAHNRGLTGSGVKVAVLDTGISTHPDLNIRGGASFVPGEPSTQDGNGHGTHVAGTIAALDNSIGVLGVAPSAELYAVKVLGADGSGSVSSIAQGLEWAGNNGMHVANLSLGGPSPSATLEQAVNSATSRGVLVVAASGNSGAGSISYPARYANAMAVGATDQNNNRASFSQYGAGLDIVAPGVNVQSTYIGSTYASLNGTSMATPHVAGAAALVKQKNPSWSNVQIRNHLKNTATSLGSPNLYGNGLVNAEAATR
Procedure: as §1, §2, §3

[3] = target: T3, Bacillus lentus subtilisin variant N74D/S99G/V102W/S126G/D191E/N198G/N212S/T254P, SEQ ID NO: 4 (Lederbergia lenta, UniProt P29600, D191E/N198G/N212S/N74D/S126G/S99G/T254P/V102W); assay type: biochemical
T3 construct: made in house; host or cells: protease deficient Bacillus subtilis 168
T3 sequence (P29600 1-269 N74D/S99G/V102W/S126G/D191E/N198G/N212S/T254P): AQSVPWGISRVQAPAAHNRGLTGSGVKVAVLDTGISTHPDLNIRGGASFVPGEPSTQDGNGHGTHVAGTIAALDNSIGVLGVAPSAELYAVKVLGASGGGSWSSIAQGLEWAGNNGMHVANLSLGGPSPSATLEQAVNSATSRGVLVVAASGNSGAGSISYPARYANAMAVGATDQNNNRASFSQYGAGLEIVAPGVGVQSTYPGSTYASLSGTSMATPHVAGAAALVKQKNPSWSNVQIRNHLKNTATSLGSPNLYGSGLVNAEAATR
Procedure: as §1, §2, §3

[4] = target: T4, Bacillus lentus subtilisin variant N74D/S99G/V102W/S126G/N198A/N212S/T254P, SEQ ID NO: 5 (Lederbergia lenta, UniProt P29600, N198A/N212S/N74D/S126G/S99G/T254P/V102W); assay type: biochemical
T4 construct: made in house; host or cells: protease deficient Bacillus subtilis 168
T4 sequence (P29600 1-269 N74D/S99G/V102W/S126G/N198A/N212S/T254P): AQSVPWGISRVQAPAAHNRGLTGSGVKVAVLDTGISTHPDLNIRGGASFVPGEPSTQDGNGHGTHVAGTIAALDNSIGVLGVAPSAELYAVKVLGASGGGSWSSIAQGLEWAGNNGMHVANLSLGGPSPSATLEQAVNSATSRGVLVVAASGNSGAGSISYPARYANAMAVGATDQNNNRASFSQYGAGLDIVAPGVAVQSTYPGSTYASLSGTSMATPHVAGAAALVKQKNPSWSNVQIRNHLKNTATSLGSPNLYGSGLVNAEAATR
Procedure: as §1, §2, §3

[5] = target: T5, wild-type subtilisin of Bacillus lentus (GG36), WT, SEQ ID NO: 2 (Lederbergia lenta, UniProt P29600); assay type: biochemical
T5 construct: made in house; host or cells: protease deficient Bacillus subtilis 168
T5 sequence (P29600 1-269): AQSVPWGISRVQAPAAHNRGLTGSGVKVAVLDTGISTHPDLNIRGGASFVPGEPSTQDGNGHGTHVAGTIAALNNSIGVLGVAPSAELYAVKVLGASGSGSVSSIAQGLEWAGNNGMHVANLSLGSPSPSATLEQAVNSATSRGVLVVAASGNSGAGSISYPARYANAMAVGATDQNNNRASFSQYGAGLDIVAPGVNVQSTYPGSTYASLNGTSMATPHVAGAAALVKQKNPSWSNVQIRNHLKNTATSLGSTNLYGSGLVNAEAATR
Procedure: as §1, §2, §3

[6] = substrate: C[C@H](NC(=O)CCC(=O)O)C(=O)N[C@@H](C)C(=O)N1CCC[C@H]1C(=O)N[C@@H](Cc1ccccc1)C(=O)Nc1ccc([N+](=O)[O-])cc1; assay type: biochemical, Bacillus lentus
Procedure: as §1, §2, §3

[7] = other: 0.1M Tris-HCL, pH 8.6, 25°C, pH 8.6, 25.0 °C
[8] = other: 0.1M glycine pH10, pH 10.0

Which results are given for `C[C@H](NC(=O)CCC(=O)O)C(=O)N[C@@H](C)C(=O)N1CCC[C@H]1C(=O)N[C@@H](Cc1ccccc1)C(=O)Nc1ccc([N+](=O)[O-])cc1` [succinyl-L-Ala-L-Ala-L-Pro-L-Phe-p-nitroanilide] (Suc-AAPF-pNA)?
kcat pH 8.6 ([1]; 0.1M Tris-HCL, pH 8.6, 25°C): 638 % of wild-type; kcat/Km pH 8.6 ([1]; 0.1M Tris-HCL, pH 8.6, 25°C): 1392 % of wild-type; kcat pH 10 ([1]; 0.1M glycine pH10): 554 %half-life of wild-type; kcat/Km pH10 ([1]; 0.1M glycine pH10): 2263 % wild-type; kcat pH 8.6 ([2]; 0.1M Tris-HCL, pH 8.6, 25°C): 55 % of wild-type; kcat/Km pH 8.6 ([2]; 0.1M Tris-HCL, pH 8.6, 25°C): 51 % of wild-type; kcat pH 10 ([2]; 0.1M glycine pH10): 37 %half-life of wild-type; kcat/Km pH10 ([2]; 0.1M glycine pH10): 97 % wild-type; kcat pH 8.6 ([3]; 0.1M Tris-HCL, pH 8.6, 25°C): 579 % of wild-type; kcat/Km pH 8.6 ([3]; 0.1M Tris-HCL, pH 8.6, 25°C): 3326 % of wild-type; kcat pH 10 ([3]; 0.1M glycine pH10): 719 %half-life of wild-type; kcat/Km pH10 ([3]; 0.1M glycine pH10): 5100 % wild-type; kcat pH 8.6 ([4]; 0.1M Tris-HCL, pH 8.6, 25°C): 503 % of wild-type; kcat/Km pH 8.6 ([4]; 0.1M Tris-HCL, pH 8.6, 25°C): 6362 % of wild-type; kcat pH 10 ([4]; 0.1M glycine pH10): 723 %half-life of wild-type; kcat/Km pH10 ([4]; 0.1M glycine pH10): 10827 % wild-type; kcat pH 8.6 ([5]; 0.1M Tris-HCL, pH 8.6, 25°C): 100 % of wild-type; kcat/Km pH 8.6 ([5]; 0.1M Tris-HCL, pH 8.6, 25°C): 100 % of wild-type; kcat pH 10 ([5]; 0.1M glycine pH10): 100 %half-life of wild-type; kcat/Km pH10 ([5]; 0.1M glycine pH10): 100 % wild-type

B1: wild-type subtilisin of Bacillus lentus (GG36), WT, SEQ ID NO: 2 (Lederbergia lenta) (protein)
chain: AQSVPWGISRVQAPAAHNRGLTGSGVKVAVLDTGISTHPDLNIRGGASFVPGEPSTQDGNGHGTHVAGTIAALNNSIGVLGVAPSAELYAVKVLGASGSGSVSSIAQGLEWAGNNGMHVANLSLGSPSPSATLEQAVNSATSRGVLVVAASGNSGAGSISYPARYANAMAVGATDQNNNRASFSQYGAGLDIVAPGVNVQSTYPGSTYASLNGTSMATPHVAGAAALVKQKNPSWSNVQIRNHLKNTATSLGSTNLYGSGLVNAEAATR
notes: made in house; host or cells: protease deficient Bacillus subtilis 168
What does the source list for B1?
Km [6, 7]: 630 µM; Km [6, 8]: 1340 µM

B2: Bacillus lentus subtilisin variant N74D/S97D/S126G/P204I/T254P/S259N, SEQ ID NO: 6 (Lederbergia lenta; N74D/P204I/S126G/S259N/S97D/T254P) (protein)
chain: AQSVPWGISRVQAPAAHNRGLTGSGVKVAVLDTGISTHPDLNIRGGASFVPGEPSTQDGNGHGTHVAGTIAALDNSIGVLGVAPSAELYAVKVLGADGSGSVSSIAQGLEWAGNNGMHVANLSLGGPSPSATLEQAVNSATSRGVLVVAASGNSGAGSISYPARYANAMAVGATDQNNNRASFSQYGAGLDIVAPGVNVQSTYIGSTYASLNGTSMATPHVAGAAALVKQKNPSWSNVQIRNHLKNTATSLGSPNLYGNGLVNAEAATR
notes: as for B1
B2 was tested. Which Km [6, 7] did it give?
Its Km is 660 µM.

And the Km [6, 8]?
Its Km is 520 µM.
